Experimental data as given in ChEMBL document CHEMBL5214923, “Contemporary mTOR inhibitor scaffolds to diseases breakdown: A patent review (2015-2021)” (Eur J Med Chem, 2022).

Experiments:
[1] = molecular target: T1, mTORC1 (Homo sapiens, UniProt P42345+Q8N122+Q9BVC4); test: Inhibition of mTORC1 in human MCF7 cells assessed as measuring phosphorylated S6K1 incubated for 2 hrs by AlphaLISA assay; type: cell-based
[2] = molecular target: T2, mTORC2 (Homo sapiens, UniProt P42345+Q6R327+Q9BPZ7+Q9BVC4); test: Inhibition of mTORC2 in human MCF7 cells assessed as measuring phosphorylated AKT incubated for 2 hrs by AlphaLISA assay; type: cell-based
T2 sequence (Q6R327 whole entry, other chains not shown): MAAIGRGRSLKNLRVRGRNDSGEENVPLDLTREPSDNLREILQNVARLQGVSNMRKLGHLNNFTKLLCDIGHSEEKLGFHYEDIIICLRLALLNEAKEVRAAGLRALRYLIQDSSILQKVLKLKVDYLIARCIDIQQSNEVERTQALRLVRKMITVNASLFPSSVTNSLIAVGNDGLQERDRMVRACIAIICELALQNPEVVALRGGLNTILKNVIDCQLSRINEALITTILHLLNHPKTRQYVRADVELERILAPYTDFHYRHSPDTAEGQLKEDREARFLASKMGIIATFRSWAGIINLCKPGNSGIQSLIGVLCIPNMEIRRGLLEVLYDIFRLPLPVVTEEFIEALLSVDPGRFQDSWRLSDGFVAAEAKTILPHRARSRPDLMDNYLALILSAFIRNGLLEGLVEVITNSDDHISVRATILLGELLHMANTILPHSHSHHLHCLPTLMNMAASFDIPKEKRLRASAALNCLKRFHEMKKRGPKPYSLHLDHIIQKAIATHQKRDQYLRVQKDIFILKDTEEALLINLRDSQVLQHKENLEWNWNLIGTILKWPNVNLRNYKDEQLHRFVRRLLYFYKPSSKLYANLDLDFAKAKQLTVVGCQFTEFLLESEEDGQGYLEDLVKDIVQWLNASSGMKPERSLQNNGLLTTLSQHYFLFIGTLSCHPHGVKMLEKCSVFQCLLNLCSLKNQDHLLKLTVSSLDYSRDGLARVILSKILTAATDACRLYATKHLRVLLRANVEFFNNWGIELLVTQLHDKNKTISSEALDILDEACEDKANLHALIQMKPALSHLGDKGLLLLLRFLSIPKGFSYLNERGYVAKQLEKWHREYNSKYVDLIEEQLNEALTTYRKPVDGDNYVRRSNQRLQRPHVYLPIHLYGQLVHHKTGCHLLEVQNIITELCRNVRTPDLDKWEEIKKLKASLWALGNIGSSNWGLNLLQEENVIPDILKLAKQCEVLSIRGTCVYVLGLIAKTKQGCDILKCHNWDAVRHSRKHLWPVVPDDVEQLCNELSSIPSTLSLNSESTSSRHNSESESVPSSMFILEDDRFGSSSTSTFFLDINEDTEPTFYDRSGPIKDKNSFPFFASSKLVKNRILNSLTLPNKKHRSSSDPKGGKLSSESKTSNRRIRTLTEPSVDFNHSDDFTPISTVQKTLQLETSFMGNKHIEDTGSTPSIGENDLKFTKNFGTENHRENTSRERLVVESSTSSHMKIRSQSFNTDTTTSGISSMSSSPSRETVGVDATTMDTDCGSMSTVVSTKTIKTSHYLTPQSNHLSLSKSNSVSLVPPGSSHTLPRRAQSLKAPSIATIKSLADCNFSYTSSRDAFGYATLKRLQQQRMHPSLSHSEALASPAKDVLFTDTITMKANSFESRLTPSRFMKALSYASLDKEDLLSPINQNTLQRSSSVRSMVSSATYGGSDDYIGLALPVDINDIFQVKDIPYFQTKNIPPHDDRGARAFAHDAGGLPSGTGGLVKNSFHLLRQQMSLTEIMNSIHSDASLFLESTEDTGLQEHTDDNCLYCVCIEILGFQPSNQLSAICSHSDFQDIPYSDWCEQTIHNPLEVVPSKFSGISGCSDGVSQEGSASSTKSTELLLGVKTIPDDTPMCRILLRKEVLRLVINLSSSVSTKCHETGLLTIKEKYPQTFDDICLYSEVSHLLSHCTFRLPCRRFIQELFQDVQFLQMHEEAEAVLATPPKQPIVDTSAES
T2 sequence (Q9BPZ7 2-522 limits assumed, other chains not shown): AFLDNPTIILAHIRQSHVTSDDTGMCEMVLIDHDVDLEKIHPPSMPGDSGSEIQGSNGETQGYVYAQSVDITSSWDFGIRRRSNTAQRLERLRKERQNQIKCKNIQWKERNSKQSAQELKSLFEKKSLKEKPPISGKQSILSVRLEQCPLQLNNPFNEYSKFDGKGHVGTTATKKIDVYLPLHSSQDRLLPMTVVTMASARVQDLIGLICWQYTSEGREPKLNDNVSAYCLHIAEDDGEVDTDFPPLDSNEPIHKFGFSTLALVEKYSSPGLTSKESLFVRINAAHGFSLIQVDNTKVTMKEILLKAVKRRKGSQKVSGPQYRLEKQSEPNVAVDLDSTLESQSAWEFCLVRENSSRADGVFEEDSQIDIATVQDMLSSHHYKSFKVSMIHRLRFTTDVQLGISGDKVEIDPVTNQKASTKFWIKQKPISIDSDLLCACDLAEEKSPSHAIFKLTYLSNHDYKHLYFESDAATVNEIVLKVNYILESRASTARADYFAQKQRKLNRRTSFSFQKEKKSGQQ
T2 sequence (Q9BVC4 whole entry, other chains not shown): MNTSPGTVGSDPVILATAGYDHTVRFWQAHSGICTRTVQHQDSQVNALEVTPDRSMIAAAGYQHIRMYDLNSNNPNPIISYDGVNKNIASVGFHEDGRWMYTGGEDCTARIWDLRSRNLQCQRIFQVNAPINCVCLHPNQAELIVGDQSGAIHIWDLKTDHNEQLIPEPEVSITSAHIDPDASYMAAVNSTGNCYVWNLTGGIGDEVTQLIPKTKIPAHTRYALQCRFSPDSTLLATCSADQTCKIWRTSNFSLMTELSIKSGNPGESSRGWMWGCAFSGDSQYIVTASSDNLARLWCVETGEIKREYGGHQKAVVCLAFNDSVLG

[3] = molecular target: T1, mTORC1; test: Inhibition of mTORC1 (unknown origin); type: protein-complex assay
[4] = molecular target: T2, mTORC2; test: Inhibition of mTORC2 (unknown origin); type: protein-complex assay
[5] = Inhibition of mTORC1 in mouse MEF TSC1-/- cells assessed as measuring phosphorylated S6 level incubated for 2 hrs by Hoechst staining based fluorescence assay; type: cell-based

Structure (SMILES) | IC50 [1] [nM] | IC50 [2] [µM] | IC50 [3] [nM] | IC50 [4] [nM] | also measured
Cc1c(CN2CCN(c3ncccc3Cl)CC2)cc(C(=O)N2CCN(c3cc(F)c(F)cc3C#N)CC2)n1C | 10 | > 10 |  |  | 
CO[C@@H]1C[C@H](C[C@@H](C)[C@@H]2CC(=O)[C@H](C)/C=C(\C)[C@@H](O)[C@@H](OC)C(=O)[C@H](C)C[C@H](C)/C=C/C=C/C=C(\C)[C@@H](OCCOCCO)C[C@@H]3CC[C@@H](C)[C@@](O)(O3)C(=O)C(=O)N3CCCC[C@H]3C(=O)O2)CC[C@H]1O |  |  | < 0.1 | ≥ 100 | 
CNC(=O)c1cc(F)ccc1N1CCN(C(=O)c2cc(NC3CCN(c4ccccc4C#N)CC3)c(C)cc2C)CC1 | 10 | > 10 |  |  | 
CO[C@@H]1C[C@H](C[C@@H](C)[C@@H]2CC(=O)[C@H](C)/C=C(\C)[C@@H](O)[C@@H](OC)C(=O)[C@H](C)C[C@H](C)/C=C/C=C/C=C(\C)C(N3CCCS3(=O)=O)C[C@@H]3CC[C@@H](C)[C@@](O)(O3)C(=O)C(=O)N3CCCC[C@H]3C(=O)O2)CC[C@H]1O (some centres not stated) |  |  |  |  | IC50 ([5]; Mus musculus, MEF, 2 h): 1.36 nM
CO[C@@H]1C[C@H](C[C@@H](C)[C@@H]2CC(=O)[C@H](C)/C=C(\C)[C@@H](O)[C@@H](OC)C(=O)[C@H](C)C[C@H](C)/C=C/C=C/C=C(\C)[C@@H](OCC3COCCOCCOCCO3)C[C@@H]3CC[C@@H](C)[C@@](O)(O3)C(=O)C(=O)N3CCCC[C@H]3C(=O)O2)CC[C@H]1O (some centres not stated) |  |  | < 0.1 | ≥ 100 | 
Cc1cc(C)c(C(=O)N2CCN(c3cccc(F)c3[S@](C)(=N)=O)CC2)cc1NC1CCN(c2ccccc2C#N)CC1 | 10 | > 10 |  |  | 
CC1(C)COCCN1c1nc(-c2cnc(N)cc2C(F)F)nc(N2CCOCC2(C)C)n1 |  |  | 47 | 106 | 
Cc1cc(C)c(C(=O)N2CCN(c3cccnc3S(N)(=O)=O)CC2)c(C)c1NC1CCN(c2ccccc2C#N)CC1 | 10 | > 10 |  |  | 
Cc1cc(C)c(C(=O)N2CCN(c3ncccc3F)[C@H](CO)C2)cc1NC1CCN(c2ccccc2C#N)CC1 | 10 | > 10 |  |  | 
Cc1cc(C)c(C(=O)N2CCN(c3ccccn3)[C@H](CO)C2)cc1NC1CCN(c2ccccc2OC(F)F)CC1 | 10 | > 10 |  |  | 
CO[C@@H]1C[C@H](C[C@@H](C)[C@@H]2CC(=O)[C@H](C)/C=C(\C)[C@@H](O)[C@@H](OC)C(=O)[C@H](C)C[C@H](C)/C=C/C=C/C=C(\C)C(N3CCCCS3(=O)=O)C[C@@H]3CC[C@@H](C)[C@@](O)(O3)C(=O)C(=O)N3CCCC[C@H]3C(=O)O2)CC[C@H]1O (some centres not stated) |  |  |  |  | IC50 ([5]; Mus musculus, MEF, 2 h): 3.4 nM
C[C@H]1COCCN1c1nc(-c2cnc(N)nc2C(F)F)nc(N2CCOCC2)n1 |  |  | 72 | 35 | 
Nc1ncc(-c2nc(N3CCOCC3)c3c(n2)N2CCOC[C@H]2C3)cn1 |  |  | 65 | 145 | 
Cc1cc(C)c(C(=O)N2CCN(c3ccccc3)C(C(N)=O)C2)c(C)c1NC1CCN(c2ccc(F)cc2C#N)CC1 (configuration not stated) | 10 | > 10 |  |  | 
Nc1ncc(-c2nc(N3C4CCC3COC4)nc(N3C4COCC3COC4)n2)c(C(F)F)n1 |  |  | 79 | 219 | 
CO[C@@H]1C[C@H](C[C@@H](C)[C@@H]2CC(=O)[C@H](C)/C=C(\C)[C@@H](O)[C@@H](OC)C(=O)[C@H](C)C[C@H](C)/C=C/C=C/C=C(\C)C(N3CCS3(=O)=O)C[C@@H]3CC[C@@H](C)[C@@](O)(O3)C(=O)C(=O)N3CCCC[C@H]3C(=O)O2)CC[C@@H]1n1cnnn1 (some centres not stated) |  |  |  |  | IC50 ([5]; Mus musculus, MEF, 2 h): 0.374 nM
CC1(C)COCCN1c1nc(-c2cnc(N)cc2C(F)F)nc(N2CCOCC2)n1 |  |  | 45 | 54 | 
Cc1c(CN2CCN(c3ccccc3C#N)CC2)cc(C(=O)N2CCN(c3oc(C4CC4)nc3C#N)CC2)n1C | 10 | > 10 |  |  | 
Cn1c(C(=O)N2CCN(c3ccccc3)CC2)cc(CN2CCN(c3ccccc3C#N)CC2)c1C#N | 10 | > 10 |  |  | 

Structure (SMILES) | IC50 [1] [nM] | IC50 [2] [µM] | IC50 [3] [nM] | IC50 [4] [nM] | also measured
CO[C@@H]1C[C@H](C[C@@H](C)[C@@H]2CC(=O)[C@H](C)/C=C(\C)[C@@H](O)[C@@H](OC)C(=O)[C@H](C)C[C@H](C)/C=C/C=C/C=C(\C)[C@@H](OCCSCCSCCO)C[C@@H]3CC[C@@H](C)[C@@](O)(O3)C(=O)C(=O)N3CCCC[C@H]3C(=O)O2)CC[C@H]1O |  |  | < 0.1 | ≥ 100 | 
CO[C@@H]1C[C@H](C[C@@H](C)[C@@H]2CC(=O)[C@H](C)/C=C(\C)[C@@H](O)[C@@H](OC)C(=O)[C@H](C)C[C@H](C)/C=C/C=C/C=C(\C)C(N3CCCS3(=O)=O)C[C@@H]3CC[C@@H](C)[C@@](O)(O3)C(=O)C(=O)N3CCCC[C@H]3C(=O)O2)CC[C@H]1OCCO (stereo in doubt; 12) |  |  |  |  | IC50 ([5]; mef): 22.5 nM
Cn1c(C(=O)N2CCN(c3ccccc3)CC2)cc(CN2CCN(c3ccccc3Cl)CC2)c1C#N | 10 | > 10 |  |  | 
CO[C@@H]1C[C@H](C[C@@H](C)[C@@H]2CC(=O)[C@H](C)/C=C(\C)[C@@H](O)[C@@H](OC)C(=O)[C@H](C)C[C@H](C)/C=C/C=C/C=C(\C)C(N3CCCS3(=O)=O)C[C@@H]3CC[C@@H](C)[C@@](O)(O3)C(=O)C(=O)N3CCCC[C@H]3C(=O)O2)CC[C@H]1OCCO (stereo in doubt; 13) |  |  |  |  | IC50 ([5]; mef): 8.3 nM
Cc1cc(C)c(C(=O)N2CCN(c3ccc(F)cn3)[C@H](CO)C2)c(C)c1NC1CCN(c2cccnn2)CC1 | 10 | > 10 |  |  | 
CO[C@@H]1C[C@H](C[C@@H](C)[C@@H]2CC(=O)[C@H](C)/C=C(\C)[C@@H](O)[C@@H](OC)C(=O)[C@H](C)C[C@H](C)/C=C/C=C/C=C(\C)[C@@H](OCCOCCOCCOCCOCCOCCOCCOCCO)C[C@@H]3CC[C@@H](C)[C@@](O)(O3)C(=O)C(=O)N3CCCC[C@H]3C(=O)O2)CC[C@H]1O |  |  | < 0.1 | ≥ 100 | 
CO[C@@H]1C[C@H](C[C@@H](C)[C@@H]2CC(=O)[C@H](C)/C=C(\C)[C@@H](O)[C@@H](OC)C(=O)[C@H](C)C[C@H](C)/C=C/C=C/C=C(\C)C(N3CCS3(=O)=O)C[C@@H]3CC[C@@H](C)[C@@](O)(O3)C(=O)C(=O)N3CCCC[C@H]3C(=O)O2)CC[C@H]1O (some centres not stated) |  |  |  |  | IC50 ([5]; Mus musculus, MEF, 2 h): 0.17 nM
Cc1c(CN2C3CCC2CN(c2ccccc2C#N)C3)cc(C(=O)N2CCN(c3ccccn3)CC2)n1C | 10 | > 10 |  |  | 
Cc1cc(C)c(C(=O)N2CCN(c3cncc4cn[nH]c34)CC2)nc1NC1CCN(c2ccccc2C#N)CC1 | 10 | > 10 |  |  | 
Nc1ncc(-c2nc(N3CCOCC3)c3c(n2)N2CCOC[C@@H]2C3)cn1 |  |  | 98 | 154 | 
CO[C@@H]1C[C@H](C[C@@H](C)[C@@H]2CC(=O)[C@H](C)/C=C(\C)[C@@H](O)[C@@H](OC)C(=O)[C@H](C)C[C@H](C)/C=C/C=C/C=C(\C)C(N3CCS3(=O)=O)C[C@@H]3CC[C@@H](C)[C@@](O)(O3)C(=O)C(=O)N3CCCC[C@H]3C(=O)O2)CC[C@H]1OCCO (some centres not stated) |  |  |  |  | IC50 ([5]; Mus musculus, MEF, 2 h): 0.328 nM
Cc1c(CN2CCN(c3ccccc3Cl)CC2)cc(C(=O)N2CCN(c3cccc(F)c3C#N)C[C@@H]2C)n1C | 10 | > 10 |  |  | 
CO[C@@H]1C[C@H](C[C@@H](C)[C@@H]2CC(=O)[C@H](C)/C=C(\C)[C@@H](O)[C@@H](OC)C(=O)[C@H](C)C[C@H](C)/C=C/C=C/C=C(\C)[C@H](N3CCCS3(=O)=O)C[C@@H]3CC[C@@H](C)[C@@](O)(O3)C(=O)C(=O)N3CCCC[C@H]3C(=O)O2)CC[C@H]1O |  |  |  |  | IC50 ([5]; Mus musculus, MEF, 2 h): 0.274 nM
Nc1ncc(-c2nc(N3CCOCC3)nc3c2C[C@H]2COCCN32)cn1 |  |  | 594 | 1260 | 
CO[C@@H]1C[C@H](C[C@@H](C)[C@@H]2CC(=O)[C@H](C)/C=C(\C)[C@@H](O)[C@@H](OC)C(=O)[C@H](C)C[C@H](C)/C=C/C=C/C=C(\C)[C@@H](OCCOCCOCCO)C[C@@H]3CC[C@@H](C)[C@@](O)(O3)C(=O)C(=O)N3CCCC[C@H]3C(=O)O2)CC[C@H]1O |  |  | < 0.1 | ≥ 100 | 
Cc1cc(C)c(C(=O)N2CCN(c3ncccc3S(N)(=O)=O)CC2)nc1NC1CCN(c2ccccc2C#N)CC1 | 10 | > 10 |  |  | 
CO[C@H]1C[C@@H]2CC[C@@H](C)[C@@](O)(O2)C(=O)C(=O)N2CCCC[C@H]2C(=O)O[C@H]([C@H](C)C[C@@H]2CC[C@@H](OCCO)[C@H](OC)C2)CC(=O)[C@H](C)/C=C(\C)[C@@H](O)[C@@H](OC)C(=O)[C@H](C)C[C@H](C)/C=C/C=C/C=C/1C [EVEROLIMUS] |  |  | 0.05 |  | 
Nc1ncc(-c2nc(N3CCOCC3)nc3c2C[C@@H]2COCCN32)cn1 |  |  | 574 | 575 | 
C[C@H]1COCCN1c1nc(-c2cnc(N)cc2C(F)F)nc(N2CCOCC2)n1 |  |  | 68 | 74 | 
